Assay results as given in ChEMBL document CHEMBL3124799, “Discovery of 1,3,4-oxidiazole scaffold compounds as inhibitors of superoxide dismutase expression” (Bioorg Med Chem Lett, 2014).
Blank lines part the entries; values can stand above or below the compound they belong to. Calls of active or inactive are those of the source. The calls are words filed in the database; no cut-off is given here.

Legend:
Fibroblast [1] = test: Relative expression of human SOD1 expressed in mouse fibroblasts at 10 uM after 48 hrs by ELISA
Fibroblast [2] = test: Inhibition of human SOD1 expressed in mouse fibroblasts at 10 uM after 48 hrs by ELISA relative to control; type: functional
Fibroblast [3] = test: Inhibition of human SOD1 expressed in mouse fibroblasts after 48 hrs by ELISA relative to control; type: functional, cell-based
[4] = Drug uptake in brain of mouse expressing SOD1 G93A mutant at 10 mg/kg, ip after 2 hrs; type: ADME, organism-based; design: dose 10 mg/kg, route intraperitoneal; details: read-out: Drug uptake
[5] = Drug uptake in serum of mouse expressing SOD1 G93A mutant at 10 mg/kg, ip after 2 hrs; type: ADME, organism-based; design: dose 10 mg/kg, route intraperitoneal; details: read-out: Drug uptake
[6] = Drug uptake in spinal cord of nontransgenic mouse at 10 mg/kg, ip after 24 hrs
[7] = Drug uptake in serum of mouse expressing SOD1 G93A mutant at 10 mg/kg, ip after 4 hrs; type: ADME, organism-based; design: dose 10 mg/kg, route intraperitoneal; details: read-out: Drug uptake
[8] = Drug uptake in spinal cord of mouse expressing SOD1 G93A mutant at 10 mg/kg, ip after 2 hrs; type: ADME, organism-based; design: dose 10 mg/kg, route intraperitoneal; details: read-out: Drug uptake
Brain = test: Drug uptake in brain of nontransgenic mouse at 10 mg/kg, ip after 24 hrs; details: in vivo
[9] = Drug uptake in spinal cord of nontransgenic mouse at 10 mg/kg, ip after 4 hrs
[10] = Drug uptake in serum of nontransgenic mouse at 10 mg/kg, ip after 24 hrs
[11] = Drug uptake in brain of nontransgenic mouse at 10 mg/kg, ip after 4 hrs
[12] = Drug uptake in serum of mouse expressing SOD1 G93A mutant at 20 mg/kg, ip after 24 hrs; type: ADME, organism-based; design: dose 20 mg/kg, route intraperitoneal; details: read-out: Drug uptake
[13] = Drug uptake in spinal cord of mouse expressing SOD1 G93A mutant at 20 mg/kg, ip after 1 hr; type: ADME, organism-based; design: dose 20 mg/kg, route intraperitoneal; details: read-out: Drug uptake
[14] = Drug uptake in brain of mouse expressing SOD1 G93A mutant at 20 mg/kg, ip after 24 hrs; type: ADME, organism-based; design: dose 20 mg/kg, route intraperitoneal; details: read-out: Drug uptake
Mus musculus [15] = test: Reduction in SOD1 G93A mutant expression in cerebral cortex of mouse at 20 mg/kg, ip administered every alternate day for 26 days; type: functional, organism-based; design: dose 20 mg/kg
Mus musculus [16] = test: Reduction in SOD1 G93A mutant expression in spinal cord of mouse assessed as at 20 mg/kg, ip administered every alternate day for 26 days; type: functional, organism-based; design: dose 20 mg/kg
Mus musculus [17] = test: Reduction in SOD1 G93A mutant expression in cerebellum of mouse at 20 mg/kg, ip administered every alternate day for 26 days; type: functional, organism-based; design: dose 20 mg/kg
[18] = Drug uptake in brain of mouse expressing SOD1 G93A mutant at 20 mg/kg, ip after 1 hr; type: ADME, organism-based; design: dose 20 mg/kg, route intraperitoneal; details: read-out: Drug uptake
[19] = Drug uptake in serum of mouse expressing SOD1 G93A mutant at 20 mg/kg, ip after 1 hr; type: ADME, organism-based; design: dose 20 mg/kg, route intraperitoneal; details: read-out: Drug uptake
Mus musculus [20] = test: Reduction in SOD1 G93A mutant expression in brain stem of mouse at 20 mg/kg, ip administered every alternate day for 26 days; type: functional, organism-based; design: dose 20 mg/kg
[21] = Drug uptake in spinal cord of mouse expressing SOD1 G93A mutant at 20 mg/kg, ip after 24 hrs; type: ADME, organism-based; design: dose 20 mg/kg, route intraperitoneal; details: read-out: Drug uptake
[22] = Mus musculus, Fibroblast, 48 h, read-out: IC50

SMILES: Fc1ccc(CSc2nnc(-c3ccncc3)o2)cc1
relative SOD1 expression at 10 µM (Fibroblast [1]): 86%

SMILES: O=[N+]([O-])c1ccc(CSc2nnc(-c3ccncc3)o2)cc1
relative SOD1 expression at 10 µM (Fibroblast [1]): 102%

SMILES: c1cc(CSc2nnc(-c3ccncc3)o2)ccn1
inhibition (Fibroblast [2]): inactive

SMILES: FC(F)(F)c1ccc(CSc2nnc(-c3ccncc3)o2)cc1
relative SOD1 expression at 10 µM (Fibroblast [1]): 157%

SMILES: Cc1ccc(CSc2nnc(-c3ccncc3)o2)cc1
relative SOD1 expression at 10 µM (Fibroblast [1]): 126%

SMILES: O=C1NC(=O)C(c2cn(CCCO)c3ncccc23)=C1c1cnccn1
IC50 (Fibroblast [3]; [22]): 10000 nM

SMILES: c1cncc(CSc2nnc(-c3ccncc3)o2)c1
inhibition (Fibroblast [2]): inactive

concentration at 2 h [4]: 29 nM | concentration at 2 h [5]: 153 nM | concentration at 24 h [6]: 113 nM | concentration at 4 h [7]: 334 nM | concentration at 2 h [8]: 57 nM | Drug uptake (Brain): Not Active | concentration at 4 h [9]: 162 nM | concentration at 24 h [10]: 123 nM | concentration at 4 h [11]: 47 nM
SMILES: COc1ccc(CSc2nnc(-c3ccncc3)o2)cc1
relative SOD1 expression at 10 µM (Fibroblast [1]): 47% | inhibition (Fibroblast [3]): Dose-dependent effect

SMILES: c1ccc(CSc2nnc(-c3ccncc3)o2)cc1
relative SOD1 expression at 10 µM (Fibroblast [1]): 133%

SMILES: Cn1cc(C2=C(c3ccc(Cl)cc3Cl)C(=O)NC2=O)c2ccccc21 [SB-216763]
IC50 (Fibroblast [3]; [22]): 3000 nM

SMILES: Clc1cccc(CSc2nnc(-c3ccncc3)o2)c1
relative SOD1 expression at 10 µM (Fibroblast [1]): 96%

SMILES: O=C(CCl)c1cc(Br)c(Br)s1
IC50 (Fibroblast [3]; [22]): 650 nM

SMILES: Clc1ccc(CSc2nnc(-c3ccncc3)o2)cc1
relative SOD1 expression at 10 µM (Fibroblast [1]): 123%

SMILES: O=[N+]([O-])c1cccc(CSc2nnc(-c3ccncc3)o2)c1
relative SOD1 expression at 10 µM (Fibroblast [1]): 117%

SMILES: Brc1cccc(CSc2nnc(-c3ccncc3)o2)c1
relative SOD1 expression at 10 µM (Fibroblast [1]): 91%

SMILES: CCCCc1c(-c2ccc(O)cc2)[nH]c2nccnc12 [ALOISINE A]
IC50 (Fibroblast [3]; fibroblast): Not Active

SMILES: Brc1ccc(CSc2nnc(-c3ccncc3)o2)cc1
relative SOD1 expression at 10 µM (Fibroblast [1]): 103%

SMILES: COc1cccc(CSc2nnc(-c3ccncc3)o2)c1
relative SOD1 expression at 10 µM (Fibroblast [1]): 50% | inhibition (Fibroblast [3]): Dose-dependent effect

concentration at 24 h [12]: 73 nM | concentration at 1 h [13]: 4000 nM | concentration at 24 h [14]: 77 nM | concentration at 1 h [18]: 944 nM | concentration at 1 h [19]: 672 nM | concentration at 24 h [21]: 855 nM
SMILES: Ic1cccc(CSc2nnc(-c3ccncc3)o2)c1
inhibition (Mus musculus [15]): Active | inhibition (Fibroblast [3]): Dose-dependent effect | IC50 (Fibroblast [3]; [22]): 625 nM | inhibition (Mus musculus [16]): Active | inhibition (Mus musculus [17]): Active | inhibition (Mus musculus [20]): Active

SMILES: Ic1ccc(CSc2nnc(-c3ccncc3)o2)cc1
relative SOD1 expression at 10 µM (Fibroblast [1]): 69%

SMILES: O=C1Cc2c([nH]c3ccc(Br)cc23)-c2ccccc2N1 [KENPAULLONE]
IC50 (Fibroblast [3]; [22]): 10000 nM

SMILES: Brc1ccc(CSc2nnc(-c3cccnc3)o2)cc1
relative SOD1 expression at 10 µM (Fibroblast [1]): 68.6%
